Data taken from US20150238477A1, “Method of Treating Lung Adenocarcinoma” (EXELIXIS, INC., priority 2012, published 2015).

How the values were obtained:
KIF5B-RET = biological target: T1, KIF5B-RET (Homo sapiens, UniProt P07949); conditions: in vitro studies; cited from earlier work
T1 sequence (P07949 713-1063 limits assumed): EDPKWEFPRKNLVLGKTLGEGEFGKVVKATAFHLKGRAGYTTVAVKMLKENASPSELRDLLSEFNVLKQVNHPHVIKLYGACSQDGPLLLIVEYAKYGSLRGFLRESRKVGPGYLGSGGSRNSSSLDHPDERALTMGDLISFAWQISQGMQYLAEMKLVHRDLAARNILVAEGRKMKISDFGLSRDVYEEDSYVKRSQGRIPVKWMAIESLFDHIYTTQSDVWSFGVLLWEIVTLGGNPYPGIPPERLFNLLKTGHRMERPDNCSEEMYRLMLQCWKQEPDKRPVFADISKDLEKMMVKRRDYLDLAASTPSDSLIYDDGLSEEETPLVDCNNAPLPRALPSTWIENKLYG

TT xenograft tumors = assay: TT xenograft tumor growth; type: in vivo, nu/nu mice; conditions: oral once daily, 21 days
Description: (§1) Nu/nu mice bearing TT tumors were orally administered once daily water vehicle (□) or cabozantinib at 3 mg/kg (∇), 10 mg/kg (◯), 30 mg/kg (♦), or 60 mg/kg (⋄) for 21 days. Tumor weights were determined twice weekly. Data points represent the mean tumor weight (in milligrams) and SE for each treatment group. Circulating calcitonin levels were determined in serum preparations from whole blood collected after the final indicated doses (* indicates a significant, P <0.05, reduction in circulating calcitonin when compared to serum samples from vehicle-treated control animals).

medullary thyroid cancer = conditions: 25 of 37 patients with MTC; cited from earlier work
[1] = biological target: T2, KIF5B-RET fusion-positive NSCLC (Homo sapiens, UniProt P07949); assay: case study, phase 1 monotherapy in a patient with KIF5B-RET fusion-positive NSCLC; type: in vivo
T2 construct: expression of variant 1 transcripts (KIF5B exon 15; RET exon 12); endogenous in cells; host or cells: lung adenocarcinoma cells of the patient (pleural effusion cells); the other entry of the earlier key: KIF5B (P33176, Kinesin-1 heavy chain)
T2 sequence (P07949 with tags, fused parts or gaps): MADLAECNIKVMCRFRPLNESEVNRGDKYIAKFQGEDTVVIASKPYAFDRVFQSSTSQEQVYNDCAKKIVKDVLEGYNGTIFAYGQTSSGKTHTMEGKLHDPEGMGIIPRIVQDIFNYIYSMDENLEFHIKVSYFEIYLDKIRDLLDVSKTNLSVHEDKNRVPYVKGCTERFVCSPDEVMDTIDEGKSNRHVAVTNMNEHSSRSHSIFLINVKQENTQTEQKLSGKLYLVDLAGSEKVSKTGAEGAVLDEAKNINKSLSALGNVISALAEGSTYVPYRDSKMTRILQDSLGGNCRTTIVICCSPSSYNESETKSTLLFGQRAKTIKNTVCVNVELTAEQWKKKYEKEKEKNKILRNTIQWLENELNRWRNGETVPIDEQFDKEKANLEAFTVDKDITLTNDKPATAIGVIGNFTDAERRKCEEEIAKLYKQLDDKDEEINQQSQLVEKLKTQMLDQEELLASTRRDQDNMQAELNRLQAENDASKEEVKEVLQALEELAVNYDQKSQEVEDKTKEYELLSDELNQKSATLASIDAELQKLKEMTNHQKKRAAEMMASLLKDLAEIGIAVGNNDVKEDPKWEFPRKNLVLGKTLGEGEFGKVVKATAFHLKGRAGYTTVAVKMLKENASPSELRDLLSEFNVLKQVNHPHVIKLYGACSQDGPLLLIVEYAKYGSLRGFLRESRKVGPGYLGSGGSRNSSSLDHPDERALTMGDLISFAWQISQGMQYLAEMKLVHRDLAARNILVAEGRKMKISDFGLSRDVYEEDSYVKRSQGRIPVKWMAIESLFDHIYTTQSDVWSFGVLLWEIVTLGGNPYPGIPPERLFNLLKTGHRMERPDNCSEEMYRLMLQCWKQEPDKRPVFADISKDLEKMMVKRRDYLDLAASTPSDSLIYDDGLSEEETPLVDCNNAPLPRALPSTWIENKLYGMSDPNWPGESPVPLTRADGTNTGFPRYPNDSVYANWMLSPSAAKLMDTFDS
From the text: A person who was a former smoker presented in April 2009 for evaluation of a right pleural effusion. […] There was also no tumor in either the neck or thyroid on the CT scans. The patient was diagnosed as having stage IIIB (cT4N0M0, 6th edition of the International System for Staging Lung cancer) adenocarcinoma of the lung. […] Re-growth of primary tumor was, however, reported 8 months after the end of therapy. The patient subsequently received 13 cycles of docetaxel as second-line treatment and 2 cycles of an investigational drug (anti-HER2 [human epidermal growth factor receptor type2] antibody) as third-line treatment. […] Yamamoto, N., Nokihara, H., Wakui, H., Yamada, Y., Frye, J., DeCillis, A., and Tamura, T. A phase 1 multiple ascending dose study of cabozantinib (XL184) monotherapy in Japanese patients with advanced solid tumors. Molecular Cancer Therapeutics. 2011 10 suppl 1 (abstr C26) and Nokihara, H., Yamamoto, N., Nakamichi, S., Wakui, H., Yamada, Y., Frye, J., Decillis, A., and Tamura, T. in Annals of Oncology, Vol. 23, Supplement 9, published September 17, 2012.
In February 2012, they terminated cabozantinib monotherapy due to progressive disease.

[2] = mouse, in vivo
Description: as §1
. Given that TT xenograft tumors are known to secrete high amounts of human calcitonin that correlates with tumor size, serum concentrations of circulating calcitonin were determined at the end of the dosing period. […]; P <0.005) at both the 30- and 60-mg/kg doses when compared to vehicle control animals, as depicted in FIG. 2B. Moreover, this reduction in circulating plasma calcitonin correlated with TT tumor growth inhibition described above. […]

RET = biological target: T3, RET (Homo sapiens, UniProt P07949, C634W); assay: phosphorylation of RET in TT xenograft tumors in vivo (Western immunoblot); design: species or system mice
T3 construct: endogenous in cells; host or cells: TT cells (human medullary thyroid carcinoma), in culture or as xenograft tumours in nu/nu mice
T3 sequence (P07949 29-1114 C634W): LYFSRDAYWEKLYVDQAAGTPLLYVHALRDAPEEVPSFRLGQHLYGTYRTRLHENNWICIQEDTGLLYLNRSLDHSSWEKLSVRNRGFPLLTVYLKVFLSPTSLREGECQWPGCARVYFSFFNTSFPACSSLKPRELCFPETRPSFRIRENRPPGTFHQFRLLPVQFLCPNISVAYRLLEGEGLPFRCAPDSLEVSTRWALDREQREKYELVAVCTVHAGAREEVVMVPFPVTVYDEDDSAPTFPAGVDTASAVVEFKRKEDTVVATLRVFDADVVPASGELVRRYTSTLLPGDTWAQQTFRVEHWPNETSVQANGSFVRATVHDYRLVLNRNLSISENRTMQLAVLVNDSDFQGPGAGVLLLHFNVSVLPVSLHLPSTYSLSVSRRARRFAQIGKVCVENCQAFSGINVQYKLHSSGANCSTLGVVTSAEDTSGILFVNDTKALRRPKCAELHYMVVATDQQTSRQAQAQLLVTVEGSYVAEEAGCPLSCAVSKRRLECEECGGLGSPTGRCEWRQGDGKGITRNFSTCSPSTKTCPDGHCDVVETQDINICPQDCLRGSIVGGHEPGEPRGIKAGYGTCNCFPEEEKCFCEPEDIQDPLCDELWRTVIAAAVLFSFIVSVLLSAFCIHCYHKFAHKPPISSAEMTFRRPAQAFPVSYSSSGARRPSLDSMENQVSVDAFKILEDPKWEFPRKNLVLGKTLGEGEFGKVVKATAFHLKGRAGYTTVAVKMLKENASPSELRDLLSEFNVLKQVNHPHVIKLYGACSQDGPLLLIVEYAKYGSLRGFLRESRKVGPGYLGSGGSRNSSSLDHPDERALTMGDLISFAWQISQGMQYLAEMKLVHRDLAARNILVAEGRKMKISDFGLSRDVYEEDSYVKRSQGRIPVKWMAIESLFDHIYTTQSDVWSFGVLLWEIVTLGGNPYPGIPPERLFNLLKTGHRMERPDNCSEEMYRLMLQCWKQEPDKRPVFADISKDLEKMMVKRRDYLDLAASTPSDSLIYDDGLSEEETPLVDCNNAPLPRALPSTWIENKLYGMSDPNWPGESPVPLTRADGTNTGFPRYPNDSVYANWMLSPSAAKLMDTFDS

[3] = plasma concentrations in TT xenograft study; type: in vivo, nu/nu mice; conditions: 30- and 60-mg/kg doses, oral once daily
AKT and ERK = assay: phosphorylation of AKT and ERK in TT xenograft tumors in vivo; design: species or system mice; conditions: single 100-mg/kg oral dose
Description: Levels of phosphorylated and total RET and were determined in pooled lysates by Western immunoblot analysis. In a separate study, mice bearing TT tumors were administered a single oral dose of cabozantinib (100 mg/kg) or water vehicle, and levels of phosphorylated and total RET, AKT, and ERK in tumor lysates were determined at the indicated time points post dose. Densitometric quantitation of the duration of inhibition of phosphorylation of RET versus plasma concentrations of cabozantinib. Representative Western blot images are shown. […] This effect was reversible as RET phosphorylation returned to basal levels by 48 hours after treatment as depicted in FIG. 1C.

For `CNC(=O)c1cc(Oc2ccc(NC(=O)Nc3ccc(Cl)c(C(F)(F)F)c3)cc2)ccn1` [sorafenib], the “growth and signaling properties mediated by KIF5B-RET after treatment” value (KIF5B-RET) is listed as “diminished”.

In the case of `COc1cc2nccc(Oc3ccc(NC(=O)C4(C(=O)Nc5ccc(F)cc5)CC4)cc3)c2cc1OC` [Compound 1, N-(4-{[6,7-bis(methyloxy)quinolin-4-yl]oxy}phenyl)-N′-(4-fluorophenyl)cyclopropane-1,1-dicarboxamide], the “TT xenograft tumor growth” value (TT xenograft tumors; 10- and 30-mg/kg doses) is listed as “dose-dependent inhibition”, the “TT xenograft tumor growth outcome” value (TT xenograft tumors; 30- and 60-mg/kg doses) is listed as “stable disease” and the “patients with confirmed partial response or stable disease for 6 months or longer” value (medullary thyroid cancer) is listed as 68%. The “adverse event leading to drug interruptions” value ([1]; during 10 cycles (months) of therapy, without clinical symptoms of pancreatitis) was “grade 3 serum lipase elevations”, the “response of primary lung tumor on chest CT” value ([1]; starting dose 40 mg once a day, at 9 weeks, confirmed at 17 weeks) was “partial response” and the tumor reduction ([1]; starting dose 40 mg once a day, chest CT at 9 weeks) was 40.1%. The “tolerability (stable body weights)” value [2] was “well tolerated”, the “time of inhibition of phosphorylation of RET post dose” value (RET; single 100-mg/kg oral dose) was 4 to 24 h and the “time at which RET phosphorylation returned to basal levels” value (RET; single 100-mg/kg oral dose, after treatment) was no more than 48 h. For the same compound, the “inhibition of phosphorylation of RET in tumors” value (RET; single ascending oral dose, tumors collected 4 h post dose) was “dose-dependent inhibition of phosphorylation of RET”, the “peak cyclical plasma concentrations” value [3] was 3,000 to 45,000 nmol/L and the “time of reduced phosphorylation levels of AKT and ERK post dose” value (AKT and ERK) was 4 to 24 h.
